Experiments:
[1] = target: T1, DNA topoisomerase 2-alpha (Homo sapiens, UniProt P11388); assay: Inhibition of ATPase activity of human topoisomerase 2 alpha at 10 uM
[2] = target: T1, DNA topoisomerase 2-alpha; assay: Inhibition of ATPase activity of human topoisomerase 2 alpha

T1 sequence (P11388 whole entry): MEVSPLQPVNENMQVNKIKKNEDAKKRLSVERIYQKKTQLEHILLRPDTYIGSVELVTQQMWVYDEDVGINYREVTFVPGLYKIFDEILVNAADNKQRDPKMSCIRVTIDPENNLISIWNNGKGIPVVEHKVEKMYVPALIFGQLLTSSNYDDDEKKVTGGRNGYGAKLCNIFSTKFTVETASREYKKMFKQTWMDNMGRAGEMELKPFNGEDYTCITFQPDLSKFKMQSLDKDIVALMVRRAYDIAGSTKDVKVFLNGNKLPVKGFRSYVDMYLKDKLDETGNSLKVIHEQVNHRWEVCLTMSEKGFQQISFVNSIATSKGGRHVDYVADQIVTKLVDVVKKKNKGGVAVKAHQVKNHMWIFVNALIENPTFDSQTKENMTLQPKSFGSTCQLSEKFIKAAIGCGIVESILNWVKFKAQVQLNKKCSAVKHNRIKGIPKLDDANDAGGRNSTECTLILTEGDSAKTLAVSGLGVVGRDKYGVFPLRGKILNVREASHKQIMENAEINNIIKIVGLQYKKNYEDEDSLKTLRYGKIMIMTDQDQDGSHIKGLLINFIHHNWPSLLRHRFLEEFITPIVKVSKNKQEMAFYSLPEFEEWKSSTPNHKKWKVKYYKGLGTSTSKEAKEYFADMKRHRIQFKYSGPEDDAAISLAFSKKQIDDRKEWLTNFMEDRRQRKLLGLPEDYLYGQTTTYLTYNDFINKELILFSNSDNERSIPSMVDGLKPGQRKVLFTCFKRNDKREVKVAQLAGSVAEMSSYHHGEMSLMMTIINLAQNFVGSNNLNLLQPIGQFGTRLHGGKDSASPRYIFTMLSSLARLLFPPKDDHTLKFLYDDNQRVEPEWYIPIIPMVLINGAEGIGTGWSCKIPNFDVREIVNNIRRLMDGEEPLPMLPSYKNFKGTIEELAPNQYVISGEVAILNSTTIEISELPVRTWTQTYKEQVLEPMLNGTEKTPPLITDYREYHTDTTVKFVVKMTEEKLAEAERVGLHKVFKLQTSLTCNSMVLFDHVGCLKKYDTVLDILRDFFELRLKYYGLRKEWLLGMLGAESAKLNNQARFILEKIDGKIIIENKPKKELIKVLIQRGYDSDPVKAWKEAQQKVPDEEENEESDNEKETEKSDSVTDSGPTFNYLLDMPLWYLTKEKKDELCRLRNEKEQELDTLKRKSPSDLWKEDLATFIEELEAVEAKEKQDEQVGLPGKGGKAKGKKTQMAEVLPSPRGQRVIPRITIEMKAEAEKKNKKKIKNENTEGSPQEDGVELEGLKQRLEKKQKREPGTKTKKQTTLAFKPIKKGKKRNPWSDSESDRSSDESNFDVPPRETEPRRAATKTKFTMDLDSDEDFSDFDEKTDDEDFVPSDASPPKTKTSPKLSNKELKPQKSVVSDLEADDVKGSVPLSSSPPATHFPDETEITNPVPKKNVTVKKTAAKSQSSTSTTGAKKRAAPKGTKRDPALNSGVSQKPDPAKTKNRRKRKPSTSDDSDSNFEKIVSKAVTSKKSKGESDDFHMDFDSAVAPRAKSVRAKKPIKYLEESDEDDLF

| Compound | inhibition [1] | IC50 [2] |
| --- | --- | --- |
| Cn1cnc2c(NC(C)(C)C)nc(Nc3ccc4ncsc4c3)nc21 | 7% |  |
| CC(C)(C)Nc1nc(Nc2ccc3ncsc3c2)nc2[nH]cnc12 |  | 1700 nM |

Reference: ChEMBL document CHEMBL1152402, “Discovery of a new class of catalytic topoisomerase II inhibitors targeting the ATP-binding site by structure based design. Part I” (Bioorg Med Chem Lett, 2009)
